Reference: the supplement of paper PMC6045584
± gives the standard deviation of the averaged measurements.

Legend:
BI-2536 = compound: CC[C@@H]1C(=O)N(C)c2cnc(Nc3ccc(C(=O)NC4CCN(C)CC4)cc3OC)nc2N1C1CCCC1 [BI-2536]; experiment: surviving fraction relative to DMSO-only wells; higher = less growth inhibition; conditions: exposure time: 5 days
Procedure, shortened: (§1)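 Surviving fraction was calculated by normalising CellTiter-Glo luminescence to the median of DMSO-only wells. Tumour cell lines in log phase were seeded in 384-well plates at 250–500 cells per well, and 24 hours later were exposed continuously for five days to inhibitors at 0.5, 1, 5, 10, 50, 100, 500 and 1000 nM.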

CANERTINIB = compound: C=CC(=O)Nc1cc2c(Nc3ccc(F)c(Cl)c3)ncnc2cc1OCCCN1CCOCC1 [CANERTINIB]; experiment: as above; conditions: exposure time: 5 days
Procedure, shortened: as §1

Test System	surviving fraction (BI-2536; 0.5 nM)	surviving fraction (BI-2536; 1 nM)	surviving fraction (BI-2536; 5 nM)	surviving fraction (BI-2536; 10 nM)	surviving fraction (BI-2536; 50 nM)	surviving fraction (BI-2536; 100 nM)	surviving fraction (BI-2536; 500 nM)	surviving fraction (BI-2536; 1000 nM)	surviving fraction (CANERTINIB; 0.5 nM)	surviving fraction (CANERTINIB; 1 nM)	surviving fraction (CANERTINIB; 5 nM)	surviving fraction (CANERTINIB; 10 nM)	surviving fraction (CANERTINIB; 50 nM)	surviving fraction (CANERTINIB; 100 nM)	surviving fraction (CANERTINIB; 500 nM)	surviving fraction (CANERTINIB; 1000 nM)
SIHA CERVIX	1.11 ± 0.027	1.04 ± 0.065	0.351 ± 0.025	0.263 ± 0.031	0.262 ± 0.016	0.301 ± 0.0078	0.214 ± 0.014	0.147 ± 0.015	0.897 ± 0.035	0.809 ± 0.04	0.978 ± 0.023	0.867 ± 0.049	0.951 ± 0.14	0.977 ± 0.055	0.871 ± 0.027	0.727 ± 0.027
LM7 BONE	0.925 ± 0.054	0.688 ± 0.027	0.0677 ± 0.0055	0.076 ± 0.0056	0.137 ± 0.013	0.128 ± 0.025	0.0773 ± 0.004	0.0653 ± 0.012	0.739 ± 0.015	0.657 ± 0.0061	0.791 ± 0.019	0.75 ± 0.012	0.88 ± 0.044	0.872 ± 0.085	0.655 ± 0.026	0.536 ± 0.027
ASKA SYNOVIAL	0.962 ± 0.057	0.919 ± 0.066	0.228 ± 0.012	0.231 ± 0.0032	0.256 ± 0.012	0.219 ± 0.012	0.185 ± 0.0081	0.238 ± 0.011	0.958 ± 0.03	0.93 ± 0.014	1.04 ± 0.024	0.917 ± 0.062	1.16 ± 0.077	1.09 ± 0.059	0.933 ± 0.1	0.721 ± 0.047
MG63 BONE	1.057 ± 0.0095	1.02 ± 0.053	0.884 ± 0.049	0.0403 ± 0.0059	0.033 ± 0.0017	0.023 ± 0.0017	0.029 ± 0.001	0.03 ± 0.001	0.947 ± 0.015	0.919 ± 0.016	0.9893 ± 0.007	0.971 ± 0.013	1.02 ± 0.014	1.02 ± 0.011	0.993 ± 0.025	1 ± 0.022
22RV1 PROSTATE	1.01 ± 0.1	0.973 ± 0.029	0.1 ± 0.016	0.085 ± 0.012	0.159 ± 0.0085	0.221 ± 0.012	0.216 ± 0.013	0.213 ± 0.014	0.981 ± 0.038	0.913 ± 0.091	0.985 ± 0.033	1.08 ± 0.25	1.05 ± 0.24	1.01 ± 0.11	1.12 ± 0.22	0.905 ± 0.14
HCC1954 BREAST	0.883 ± 0.13	0.766 ± 0.2	0.245 ± 0.035	0.235 ± 0.057	0.433 ± 0.0095	0.781 ± 0.0014	0.89 ± 0.035	0.699 ± 0.014	0.376 ± 0.025	0.336 ± 0.0092	0.382 ± 0.014	0.316 ± 0.014	0.263 ± 0.011	0.258 ± 0.015	0.136 ± 0.016	0.117 ± 0.0071
HS57T BREAST	1.1 ± 0.045	0.986 ± 0.028	0.216 ± 0.016	0.114 ± 0.011	0.0903 ± 0.0047	0.0937 ± 0.0085	0.156 ± 0.025	0.127 ± 0.009	0.946 ± 0.044	0.899 ± 0.047	0.893 ± 0.11	0.911 ± 0.02	0.919 ± 0.081	0.908 ± 0.012	0.843 ± 0.047	0.692 ± 0.02
VCAP PROSTATE	0.925 ± 0.13	0.243 ± 0.0099	0.0727 ± 0.012	0.0763 ± 0.015	0.154 ± 0.031	0.228 ± 0.031	0.07 ± 0.0027	0.0443 ± 0.013	0.902 ± 0.036	0.904 ± 0.026	0.954 ± 0.046	0.935 ± 0.12	1.19 ± 0.083	1.17 ± 0.1	0.859 ± 0.09	0.737 ± 0.037
CAL72 BONE	1 ± 0.019	0.742 ± 0.12	0.2 ± 0.021	0.147 ± 0.033	0.12 ± 0.026	0.0987 ± 0.015	0.104 ± 0.019	0.0927 ± 0.009	0.982 ± 0.056	0.989 ± 0.067	0.979 ± 0.058	0.969 ± 0.052	1.02 ± 0.2	1.11 ± 0.037	1.03 ± 0.1	1.08 ± 0.053
OSHN BONE	1.09 ± 0.019	1.075 ± 0.0046	0.874 ± 0.072	0.027 ± 0.001	0.0297 ± 0.00058	0.022 ± 0.001	0.0237 ± 0.0021	0.0237 ± 0.0011	0.898 ± 0.036	0.904 ± 0.028	0.932 ± 0.035	0.91 ± 0.019	1.03 ± 0.043	1.03 ± 0.016	1.02 ± 0.0035	1.03 ± 0.028
SAOS2 BONE	1.03 ± 0.036	0.875 ± 0.025	0.083 ± 0.0052	0.0753 ± 0.0023	0.146 ± 0.0046	0.194 ± 0.015	0.129	0.075	0.853 ± 0.028	0.85 ± 0.042	0.877 ± 0.06	0.818 ± 0.015	1.02 ± 0.038	1.04 ± 0.12	0.815 ± 0.026	0.703 ± 0.063
HUO3N1 BONE	0.991 ± 0.0085	0.994 ± 0.071	0.6 ± 0.1	0.242 ± 0.035	0.211 ± 0.0099	0.204 ± 0.022	0.265 ± 0.014	0.303 ± 0.016	0.949 ± 0.063	0.949 ± 0.015	0.965 ± 0.069	0.943 ± 0.069	1 ± 0.027	0.995 ± 0.02	0.808 ± 0.03	0.701 ± 0.022
SG27 HEADNECK	0.99 ± 0.077	1.16 ± 0.1	1.04 ± 0.06	1.03 ± 0.098	1 ± 0.076	1 ± 0.1	0.391 ± 0.11	0.212 ± 0.068	1.03 ± 0.15	1.06 ± 0.054	1.03 ± 0.067	0.883 ± 0.1	1.01 ± 0.1	0.999 ± 0.028	0.96 ± 0.13	0.894 ± 0.08
SCC36 HEADNECK	0.945 ± 0.088	0.897 ± 0.19	0.189 ± 0.011	0.191 ± 0.01	0.291 ± 0.04	0.24 ± 0.018	0.114 ± 0.0061	0.07 ± 0.0053	0.715 ± 0.044	0.747 ± 0.059	0.645 ± 0.054	0.753 ± 0.016	0.741 ± 0.039	0.747 ± 0.045	0.328 ± 0.023	0.329 ± 0.035
